Numbers after ± are expanded uncertainties.
Experiment: xn = mol fraction of the nth substance listed
Conditions: Liquid, Vibrating tube method

COC(=O)c1ccccc1 [methyl benzoate] + C1CCCCC1
mass density [kg/m3]
Conditions | x1 = 0.0985 | x1 = 0.1963 | x1 = 0.2939 | x1 = 0.3942 | x1 = 0.4955 | x1 = 0.596 | x1 = 0.6975 | x1 = 0.7993 | x1 = 0.8982
298.15 K, 10000 kPa | – | – | – | – | – | – | – | 1031.4 ± 2.4 | 1060 ± 2.4
298.15 K, 15000 kPa | 817.1 ± 2.4 | 848.6 ± 2.4 | 880.1 ± 2.4 | 911.7 ± 2.4 | 943.2 ± 2.4 | 974.8 ± 2.4 | 1005.4 ± 2.4 | 1034.6 ± 2.4 | 1063.1 ± 2.4
298.15 K, 20000 kPa | 820.8 ± 2.4 | 852.2 ± 2.4 | 883.7 ± 2.4 | 915.2 ± 2.4 | 946.6 ± 2.4 | 978.2 ± 2.4 | 1008.5 ± 2.4 | 1037.7 ± 2.4 | 1066.1 ± 2.4
298.15 K, 25000 kPa | 824.4 ± 2.4 | 855.8 ± 2.4 | 887.2 ± 2.4 | 918.6 ± 2.4 | 949.9 ± 2.4 | 981.4 ± 2.4 | 1011.7 ± 2.4 | 1040.7 ± 2.4 | 1069 ± 2.4
298.15 K, 30000 kPa | 827.9 ± 2.4 | 859.2 ± 2.4 | 890.5 ± 2.4 | 921.9 ± 2.4 | 953.1 ± 2.4 | 984.5 ± 2.4 | 1014.7 ± 2.4 | 1043.6 ± 2.4 | 1071.9 ± 2.4
298.15 K, 35000 kPa | 831.2 ± 2.4 | 862.5 ± 2.4 | 893.8 ± 2.4 | 925 ± 2.4 | 956.2 ± 2.4 | 987.5 ± 2.4 | 1017.7 ± 2.4 | 1046.5 ± 2.4 | 1074.7 ± 2.4
298.15 K, 40000 kPa | 834.4 ± 2.4 | 865.7 ± 2.4 | 896.9 ± 2.4 | 928.1 ± 2.4 | 959.2 ± 2.4 | 990.5 ± 2.4 | 1020.5 ± 2.4 | 1049.3 ± 2.4 | 1077.4 ± 2.4
298.15 K, 45000 kPa | 837.5 ± 2.4 | 868.8 ± 2.4 | 900 ± 2.4 | 931.1 ± 2.4 | 962.1 ± 2.4 | 993.4 ± 2.4 | 1023.3 ± 2.4 | 1052.1 ± 2.4 | 1080.1 ± 2.4
298.15 K, 50000 kPa | 840.5 ± 2.4 | 871.8 ± 2.4 | 902.9 ± 2.4 | 934 ± 2.4 | 965 ± 2.4 | 996.2 ± 2.4 | 1026.1 ± 2.4 | 1054.7 ± 2.4 | 1082.7 ± 2.4
298.15 K, 55000 kPa | 843.4 ± 2.4 | 874.7 ± 2.4 | 905.8 ± 2.4 | 936.9 ± 2.4 | 967.8 ± 2.4 | 999 ± 2.4 | 1028.8 ± 2.4 | 1057.4 ± 2.4 | 1085.3 ± 2.4
298.15 K, 60000 kPa | 846.1 ± 2.4 | 877.3 ± 2.4 | 908.6 ± 2.4 | 939.5 ± 2.4 | 970.3 ± 2.4 | 1001.4 ± 2.4 | 1031.3 ± 2.4 | 1059.9 ± 2.4 | 1087.8 ± 2.4
308.15 K, 100 kPa | 795.4 ± 2.4 | 827 ± 2.4 | 858.8 ± 2.4 | 890.8 ± 2.4 | 922.6 ± 2.4 | 954.7 ± 2.4 | 985.6 ± 2.4 | 1015.2 ± 2.4 | 1044.1 ± 2.4
308.15 K, 1000 kPa | 796.2 ± 2.4 | 827.8 ± 2.4 | 859.6 ± 2.4 | 891.5 ± 2.4 | 923.4 ± 2.4 | 955.4 ± 2.4 | 986.3 ± 2.4 | 1015.9 ± 2.4 | 1044.7 ± 2.4
308.15 K, 5000 kPa | 799.8 ± 2.4 | 831.2 ± 2.4 | 863.1 ± 2.4 | 894.9 ± 2.4 | 926.6 ± 2.4 | 958.5 ± 2.4 | 989.3 ± 2.4 | 1018.7 ± 2.4 | 1047.5 ± 2.4
308.15 K, 10000 kPa | 804.3 ± 2.4 | 835.7 ± 2.4 | 867.2 ± 2.4 | 898.9 ± 2.4 | 930.5 ± 2.4 | 962.3 ± 2.4 | 992.9 ± 2.4 | 1022.2 ± 2.4 | 1050.8 ± 2.4
308.15 K, 15000 kPa | 808.3 ± 2.4 | 839.8 ± 2.4 | 871.2 ± 2.4 | 902.8 ± 2.4 | 934.2 ± 2.4 | 965.9 ± 2.4 | 996.4 ± 2.4 | 1025.6 ± 2.4 | 1054.1 ± 2.4
308.15 K, 20000 kPa | 812.3 ± 2.4 | 843.6 ± 2.4 | 875 ± 2.4 | 906.5 ± 2.4 | 937.8 ± 2.4 | 969.4 ± 2.4 | 999.8 ± 2.4 | 1028.8 ± 2.4 | 1057.2 ± 2.4
308.15 K, 25000 kPa | 816.1 ± 2.4 | 847.3 ± 2.4 | 878.7 ± 2.4 | 910 ± 2.4 | 941.3 ± 2.4 | 972.8 ± 2.4 | 1003 ± 2.4 | 1032 ± 2.4 | 1060.3 ± 2.4
308.15 K, 30000 kPa | 819.7 ± 2.4 | 850.9 ± 2.4 | 882.2 ± 2.4 | 913.5 ± 2.4 | 944.6 ± 2.4 | 976 ± 2.4 | 1006.2 ± 2.4 | 1035 ± 2.4 | 1063.3 ± 2.4
308.15 K, 35000 kPa | 823.2 ± 2.4 | 854.4 ± 2.4 | 885.6 ± 2.4 | 916.8 ± 2.4 | 947.9 ± 2.4 | 979.2 ± 2.4 | 1009.3 ± 2.4 | 1038 ± 2.4 | 1066.2 ± 2.4
308.15 K, 40000 kPa | 826.5 ± 2.4 | 857.7 ± 2.4 | 888.9 ± 2.4 | 920 ± 2.4 | 951 ± 2.4 | 982.3 ± 2.4 | 1012.3 ± 2.4 | 1041 ± 2.4 | 1069 ± 2.4
308.15 K, 45000 kPa | 829.8 ± 2.4 | 861 ± 2.4 | 892.1 ± 2.4 | 923.2 ± 2.4 | 954.1 ± 2.4 | 985.3 ± 2.4 | 1015.2 ± 2.4 | 1043.8 ± 2.4 | 1071.8 ± 2.4
308.15 K, 50000 kPa | 833 ± 2.4 | 864.1 ± 2.4 | 895.1 ± 2.4 | 926.2 ± 2.4 | 957.1 ± 2.4 | 988.2 ± 2.4 | 1018.1 ± 2.4 | 1046.6 ± 2.4 | 1074.6 ± 2.4
308.15 K, 55000 kPa | 836 ± 2.4 | 867.1 ± 2.4 | 898.2 ± 2.4 | 929.2 ± 2.4 | 960 ± 2.4 | 991.1 ± 2.4 | 1020.9 ± 2.4 | 1049.3 ± 2.4 | 1077.2 ± 2.4
308.15 K, 60000 kPa | 838.8 ± 2.4 | 869.5 ± 2.4 | 900.9 ± 2.4 | 931.9 ± 2.4 | 962.7 ± 2.4 | 993.7 ± 2.4 | 1023.4 ± 2.4 | 1051.9 ± 2.4 | 1079.9 ± 2.4
318.15 K, 100 kPa | 785.8 ± 2.4 | 817.4 ± 2.4 | 849.2 ± 2.4 | 881.3 ± 2.4 | 913.1 ± 2.4 | 945.2 ± 2.4 | 976.1 ± 2.4 | 1005.8 ± 2.4 | 1034.6 ± 2.4
318.15 K, 1000 kPa | 786.8 ± 2.4 | 818.3 ± 2.4 | 850.1 ± 2.4 | 882.1 ± 2.4 | 913.9 ± 2.4 | 945.9 ± 2.4 | 976.8 ± 2.4 | 1006.5 ± 2.4 | 1035.2 ± 2.4
318.15 K, 5000 kPa | 790.7 ± 2.4 | 822 ± 2.4 | 853.8 ± 2.4 | 885.7 ± 2.4 | 917.3 ± 2.4 | 949.3 ± 2.4 | 980 ± 2.4 | 1009.5 ± 2.4 | 1038.2 ± 2.4
318.15 K, 10000 kPa | 795.2 ± 2.4 | 826.6 ± 2.4 | 858.2 ± 2.4 | 889.9 ± 2.4 | 921.4 ± 2.4 | 953.2 ± 2.4 | 983.8 ± 2.4 | 1013.1 ± 2.4 | 1041.7 ± 2.4
318.15 K, 15000 kPa | 799.7 ± 2.4 | 830.9 ± 2.4 | 862.4 ± 2.4 | 893.9 ± 2.4 | 925.4 ± 2.4 | 957 ± 2.4 | 987.5 ± 2.4 | 1016.7 ± 2.4 | 1045.1 ± 2.4
318.15 K, 20000 kPa | 803.8 ± 2.4 | 835.1 ± 2.4 | 866.4 ± 2.4 | 897.8 ± 2.4 | 929.1 ± 2.4 | 960.7 ± 2.4 | 991 ± 2.4 | 1020.1 ± 2.4 | 1048.4 ± 2.4
318.15 K, 25000 kPa | 807.8 ± 2.4 | 839 ± 2.4 | 870.2 ± 2.4 | 901.5 ± 2.4 | 932.7 ± 2.4 | 964.2 ± 2.4 | 994.4 ± 2.4 | 1023.3 ± 2.4 | 1051.6 ± 2.4
318.15 K, 30000 kPa | 811.6 ± 2.4 | 842.8 ± 2.4 | – | – | – | – | – | – | –
